Test results published in ChEMBL document CHEMBL3098127, “A highly predictive 3D-QSAR model for binding to the voltage-gated sodium channel: design of potent new ligands” (Bioorg Med Chem, 2014).

Species on record: Rattus norvegicus
Conditions: Cerebral cortex

Going from `CCCOc1cc(N)ccc1C(=O)OCCN(CC)CC` to `CCCCOc1cc(C(=O)OCCN(CC)CC)ccc1N`, the logIC50 falls from 1.38 to 0.46.

Going from `CCOC(=O)c1ccc(N)cc1` to `CCN(CC)CCOC(=O)c1ccc(N)cc1`, the logIC50 falls from 2.86 to 2.04.

Going from `CCCC1(c2ccccc2)NC(=O)NC1=O` (stereo not drawn) to `CCCCCC1(c2ccccc2)NC(=O)NC1=O` (stereo not drawn), the logIC50 falls from 2.21 to 1.59.

First: CCCCOc1cc(C(=O)NCCN(CC)CC)c2ccccc2n1
Second: CCCCc1cc2ccccc2c(OCCN(C)C)n1
The logIC50 of the first is higher: 0.78 for the first, 0.53 for the second.

Compared with `CCC1(c2ccccc2)NC(=O)N(CN2CCN(C(c3ccccc3)c3ccccc3)CC2)C1=O` (stereo not drawn), `CCCCCC1(c2ccccc2)NC(=O)N(CN2CCN(C(c3ccccc3)c3ccccc3)CC2)C1=O` (stereo not drawn) is lower in logIC50: 0.52 for the first, 0.11 for the second.

`CCCCCC1(c2ccccc2)NC(=O)N(Cc2ccccc2)C1=O` (stereo not drawn) and `CCCCCCCCCC1(c2ccccc2)NC(=O)N(Cc2ccccc2)C1=O` (stereo not drawn) are within 0.2 log units of each other in logIC50: 0.84 for the first, 0.71 for the second.

Going from `CCC(OCCCc1ccccc1)(C(=O)CCCCc1ccccc1)c1ccccc1` (stereo not drawn) to `CCCCCC(O)(C(=O)NCCC(c1ccccc1)c1ccccc1)c1ccccc1` (stereo not drawn), the logIC50 falls from 0.63 to 0.4.

First: CCCCOc1ccc(OCCCN2CCOCC2)cc1
Second: CCOc1ccc(/N=C(\C)Nc2ccc(OCC)cc2)cc1
The logIC50 of the first is higher: 1 for the first, 0.23 for the second.

First: CCCCC1(c2ccccc2)NC(=O)N(C)C1=O (stereo not drawn)
Second: CCCCCC1(c2ccccc2)NC(=O)N(S(C)(=O)=O)C1=O (stereo not drawn)
The logIC50 of the first is higher: 2.45 for the first, 2.05 for the second.

Going from `CCC(O)(C(=O)NCCC(c1ccccc1)c1ccccc1)c1ccccc1` (stereo not drawn) to `CC(Cc1ccccc1)NCCC(c1ccccc1)c1ccccc1` (stereo not drawn), the logIC50 falls from 0.91 to -0.52.

Compared with `Cc1cccc(C)c1NC(=O)C(C)N` (stereo not drawn), `CCN(CC)CC(=O)Nc1c(C)cccc1C` is lower in logIC50: 2.3 for the first, 1.68 for the second.

`CCCCCC(O)(C(=O)N1CCN(C(c2ccccc2)c2ccccc2)CC1)c1ccccc1` (stereo not drawn) and `CC(O)(C(=O)N1CCN(C(c2ccccc2)c2ccccc2)CC1)c1ccccc1` (stereo not drawn) are within 0.2 log units of each other in logIC50: 0.68 for the first, 0.8 for the second.

Compared with `O=C1NC(=O)C(c2ccccc2)(c2ccccc2)N1`, `CCCCCCC1(c2ccccc2)NC(=O)NC1=O` (stereo not drawn) is lower in logIC50: 1.6 for the first, 1.11 for the second.

Going from `COc1ccc(CCN(C)CCCC(C#N)(c2cc(OC)c(OC)c(OC)c2)C(C)C)cc1OC` (stereo not drawn) to `COc1cc(C(=O)OCCCN2CCCN(CCCOC(=O)c3cc(OC)c(OC)c(OC)c3)CC2)cc(OC)c1OC`, the logIC50 falls from 0.56 to -0.22.

Compared with `CCC1(c2ccccc2)NC(=O)N(S(=O)(=O)c2ccc(C)cc2)C1=O` (stereo not drawn), `CCCC1(c2ccccc2)NC(=O)N(S(C)(=O)=O)C1=O` (stereo not drawn) is higher in logIC50: 1.7 for the first, 2.7 for the second.

First: O=C(CCCN1CCC(O)(c2ccc(Cl)cc2)CC1)c1ccc(F)cc1
Second: CN(C)C(=O)C(CCN1CCC(O)(c2ccc(Cl)cc2)CC1)(c1ccccc1)c1ccccc1
The logIC50 of the first is higher: 0.08 for the first, -0.56 for the second.

Going from `NCCCCCCNS(=O)(=O)c1cccc2ccccc12` to `Cc1ccc2c(S(=O)(=O)NCCCCCCN)cccc2c1`, the logIC50 falls from 1.34 to 1.08.

`CCCCCCCCCC1(c2ccccc2)NC(=O)N(S(C)(=O)=O)C1=O` (stereo not drawn) and `CCCCCCCC1(c2ccccc2)NC(=O)N(S(C)(=O)=O)C1=O` (stereo not drawn) are within 0.2 log units of each other in logIC50: 1.1 for the first, 1.11 for the second.

First: CC(C)CNCCOC(=O)c1ccc(N)cc1
Second: CCCCN(CCCC)CCCOC(=O)c1ccc(N)cc1
The logIC50 of the first is higher: 1.74 for the first, 0.43 for the second.

Compared with `COc1cc2nc(N3CCN(C(=O)c4ccco4)CC3)nc(N)c2cc1OC`, `CC12C(=O)NC(=O)N1CCc1ccccc12` (stereo not drawn) is higher in logIC50: 1.33 for the first, 2.86 for the second.

`COC(=O)C1=C(C)NC(C)=C(C(=O)OCC(C)C)C1c1ccccc1[N+](=O)[O-]` (stereo not drawn) and `CCOC(=O)C1=C(C)NC(C)=C(C(=O)OC)C1c1cccc([N+](=O)[O-])c1` (stereo not drawn) are within 0.2 log units of each other in logIC50: 1.41 for the first, 1.56 for the second.

`CCCCCCCCCC1(c2ccccc2)NC(=O)NC1=O` (stereo not drawn) and `CCCCCCCC1(c2ccccc2)NC(=O)NC1=O` (stereo not drawn) are the same in logIC50: 0.7 for the first, 0.7 for the second.

`CCCCCC(O)(C(=O)NCCCc1ccccc1)c1ccccc1` (stereo not drawn) and `CCCCCC(O)(C(=O)NCCc1ccccc1)c1ccccc1` (stereo not drawn) are within 0.2 log units of each other in logIC50: 0.72 for the first, 0.7 for the second.

Going from `Cc1cccc(C)c1NC(=O)C1CCCCN1C` (stereo not drawn) to `CC1CCCCN1CCCOC(=O)c1ccccc1` (stereo not drawn), the logIC50 falls from 2.28 to 1.11.

Compared with `Clc1ccc(C(c2ccc(Cl)cc2)[n+]2ccn(CC(OCc3ccc(Cl)cc3Cl)c3ccc(Cl)cc3Cl)c2)cc1` (stereo not drawn), `CN(C)C(=O)C(CCN1CCC(O)(c2ccc(Cl)c(C(F)(F)F)c2)CC1)(c1ccccc1)c1ccccc1` is lower in logIC50: 0.85 for the first, 0.55 for the second.

`CN(C)CCC(c1ccccc1)c1ccccn1` (stereo not drawn) and `CCC(O)(C(=O)NCCc1ccccc1)c1ccccc1` (stereo not drawn) are within 0.2 log units of each other in logIC50: 1.52 for the first, 1.48 for the second.

First: COC(=O)[C@H]1[C@@H](OC(=O)c2ccccc2)C[C@@H]2CC[C@H]1N2C
Second: CCCNC(C)(C)COC(=O)c1ccccc1
The logIC50 of the first is higher: 1.69 for the first, 0.88 for the second.

First: OC(CCCN1CCCCC1)(c1ccccc1)c1ccccc1
Second: CCC(O)(C(=O)NCCCc1ccccc1)c1ccccc1 (stereo not drawn)
The logIC50 of the first is lower: 0.53 for the first, 1.54 for the second.

First: CC(C)COCC(CN(Cc1ccccc1)c1ccccc1)N1CCCC1 (stereo not drawn)
Second: C[N+](C)(CC(=O)Nc1ccccc1)CC(=O)Nc1ccccc1
The logIC50 of the first is lower: -0.08 for the first, 0.59 for the second.

`CCCCCCCCCC(O)(C(N)=O)c1ccccc1` (stereo not drawn) and `CCCCCCCC(O)(C(N)=O)c1ccccc1` (stereo not drawn) are within 0.2 log units of each other in logIC50: 0.81 for the first, 0.95 for the second.

First: CCCCCCCC1(c2ccccc2)OC(=O)NC1=O (stereo not drawn)
Second: CCCCCC1(c2ccccc2)OC(=O)NC1=O (stereo not drawn)
The logIC50 of the first is lower: 1.48 for the first, 2.5 for the second.

Compared with `CCCC1(c2ccccc2)OC(=O)NC1=O` (stereo not drawn), `CCN1C(=O)NC(=O)C1(C)c1ccccc1` (stereo not drawn) is lower in logIC50: 2.65 for the first, 2.4 for the second.

Going from `O=C1NC(=O)C2(CCc3ccccc32)N1` (stereo not drawn) to `O=C1NC(=O)C2(CCCc3ccccc32)N1` (stereo not drawn), the logIC50 falls from 3.32 to 2.93.

`CCOC(=O)C1=C(C)NC(C)=C(C(=O)OC)C1c1cccc(Cl)c1Cl` (stereo not drawn) and `CCCNC(C)C(=O)Nc1ccccc1C` (stereo not drawn) are within 0.2 log units of each other in logIC50: 1.57 for the first, 1.73 for the second.

Going from `CCN(CC)CCOC(=O)C1(C2CCCCC2)CCCCC1` to `O=C1NC(=O)C2(CCCCCc3ccccc32)N1` (stereo not drawn), the logIC50 rises from 0.45 to 2.4.

First: O=C1NC(=O)C2(CCCCc3ccccc32)N1 (stereo not drawn)
Second: OCCN1CCN(CCCN2c3ccccc3Sc3ccc(C(F)(F)F)cc32)CC1
The logIC50 of the first is higher: 2.4 for the first, 0.57 for the second.

System: not listed separately
Assay: Displacement of [3H]BTX-B from neuronal voltage-gated sodium channel in rat cerebral cortex synaptoneurosomes after 60 mins by scintillation counting
Assay type: tissue-based
Conditions: not given

Going from `Fc1ccc(C(CCCNCCCc2ccccc2)c2ccc(F)cc2)cc1` to `Fc1ccc(C(CCCNCCc2ccccc2)c2ccc(F)cc2)cc1`, the IC50 rises from 229 nM to 1230 nM (5.4-fold). The first is the more potent here.

Going from `c1ccc(C(CCNC(c2ccccc2)c2ccccc2)c2ccccc2)cc1` to `c1ccc(C(CCCNC(c2ccccc2)c2ccccc2)c2ccccc2)cc1`, the IC50 rises from 760 nM to 1330 nM (1.8-fold). The first is the more potent here.

`Cc1ccc(C(=O)CCCN2CCN(C(c3ccccc3)c3ccccc3)CC2)cc1C` and `CC(C)(C)c1ccc(C(=O)CCCN2CCN(C(c3ccccc3)c3ccccc3)CC2)cc1` are within 1.5-fold of each other in IC50: 156 nM for the first, 128 nM for the second.

`c1ccc(CCCN2CCN(C(c3ccccc3)c3ccccc3)CC2)cc1` and `c1ccc(CCN2CCN(C(c3ccccc3)c3ccccc3)CC2)cc1` are within 1.5-fold of each other in IC50: 192 nM for the first, 257 nM for the second.

`c1ccc(CCCNCCCc2ccccc2)cc1` and `c1ccc(CCCNCCc2ccccc2)cc1` are within 1.5-fold of each other in IC50: 252 nM for the first, 340 nM for the second.

Going from `Fc1ccc(C(CCCN2CCN(C(c3ccccc3)c3ccccc3)CC2)c2ccc(F)cc2)cc1` to `O=C(NCCN1CCN(C(c2ccccc2)c2ccccc2)CC1)c1ccccc1`, the IC50 rises from 119 nM to 283 nM (2.4-fold). The first is the more potent here.

Compared with `c1ccc(C(CCCCNC(c2ccccc2)c2ccccc2)c2ccccc2)cc1`, `c1ccc(C(CCCCCNC(c2ccccc2)c2ccccc2)c2ccccc2)cc1` is 1.6-fold lower in IC50: 562 nM for the first, 345 nM for the second.

Compared with `c1ccc(C(CCCCCCNC(c2ccccc2)c2ccccc2)c2ccccc2)cc1`, `c1ccc(C(CNC(c2ccccc2)c2ccccc2)c2ccccc2)cc1` is 5.6-fold higher in IC50: 560 nM for the first, 3160 nM for the second. The first is the more potent here.
